Measurements reported in patent publication US11510957B2, “Method for treating or alleviating autoimmune-related diseases” (priority 2016, dated 2022).

Tests used:
[1] = test system: IMQ-induced psoriasis-like dermatitis in BALB/c mice; test: Imiquimod (IMQ)-induced psoriasis-like dermatitis mouse model, skin irritation score; assay type: in vivo; conditions: 100 mg/kg; 6 days; FIG. 5D
Method: The 8 weeks BALB/c male mice were purchased from BioLASCO Taiwan Co., Ltd. After acclimation and quarantine, the batch of mice were approximately 9-10 weeks of age at the time of performing the experiment of IMQ-induced psoriasis-like dermatitis. The experimental animals were bred in the environment: 12 hours light and 12 hours dark, room temperature of 23±2° C., and relative humidity of 40-70%. During feeding, animals were free to obtain adequate food and drinking water. In addition, during the quarantine and testing period, the animals were observed and recorded by the veterinarian and the experimental staff of ITRI to ensure health of these experimental animals.
Then, the hair on the back of each mouse was shaved, and the shaving area was about 4*2 cm^2. Since day 0, 3.125 mg imiquimod (IMQ) was administered by smearing to the skin of shaved area of each mouse daily for consecutive 6 days. […]
The above-mentioned degree of skin irritation is based on Psoriasis Area and Severity Index (PAST), in which erythema, thickening, and scaling of skin were assessed and analyzed for judging the scale. […]
The mean value and standard error of mean (S.E.M.) of each group were calculated by accumulating the index observed in the same mouse, and t-test statistics was used to distinguish the differences between the groups.

[2] = test system: TNF-α secretion in LPS-induced acute inflammatory mice; test: TNF-α secretion in LPS-induced acute inflammatory BALB/c mouse model, plasma ELISA; assay type: in vivo; conditions: FIG. 5B
Method: The 6-8 weeks BALB/c male mice were purchased from BioLASCO Taiwan Co., Ltd. In addition to make the feeding condition meeting with national experimental animal guidelines, the batch of mice were marked, sub-cage and weighing soon after acquisition. Then, these mice were placed to the quarantine room of general area for a week of quarantine work. During the quarantine period, observation of mobility and environmental adaptability was performed, and after assessment to be normal, these mice were transferred into the feeding area for experimental implementation. […]
Then the mice were fasted for 2 to 4 hours but regular drinking water was still supplied. […] After administration, the clinical symptoms of the mice were observed and recorded. […] After administration, the clinical symptoms of the mice were observed and recorded.
After 1.5 hours LPS stimulation, the mice were euthanized by excessive CO2 and the whole blood was collected by cardiac puncture blood sampling. Next, the plasma was collected after centrifugation at 6000 rpm and 4° C. for 10 minutes and then TNF-α secretion were analyzed.
The TNF-α secretion in plasma was analyzed according to the following procedure shown in Duoset® ELISA kit. […] Finally, 50 μl of Stop Solution (1N HCl) was added to each well to stop the color reaction, and the absorbance of OD450 nm was measured.

EAE in C57BL/6 mice = test: Experimental autoimmune encephalomyelitis (EAE) mouse model, clinical EAE score; assay type: in vivo; conditions: 30 mg/kg and 100 mg/kg; 14 days
Method: The experimental animals, female C57BL/6 mice, aged about 8 weeks, were purchased from National Laboratory Animal Center (Tainan). After acclimation and quarantine, the mice were approximately 10-12 weeks of age at the time of performing the EAE experiments. The experimental animals were bred in the environment: 12 hours light and 12 hours dark, room temperature of 23±2° C., and relative humidity of 40-70%. During feeding, animals were free to obtain adequate food and drinking water, but after the onset of EAE, the soaked soft feed and agar gel jelly were especially given in the bottom of the feeding cage, so that the onset animals were easier to feed and drink. In addition, during the quarantine and testing period, the animals were observed and recorded by the veterinarian and the experimental staff of ITRI to ensure health of these experimental animals.
The foregoing C57BL/6 mice were administered subcutaneously with 200 μl emulsion including 200 μg MOG35-55 peptide and 400 μg Mycobacterium tuberculosis H37Ra, followed by intraperitoneal injection of 500 ng pertussis toxin for induction of EAE. From the 7th day after induction, the EAE clinical symptoms were recorded daily according to the recognized Ataxia score (grading of nervous system disorder) and EAE score as the scoring criteria (description of Ataxia score and EAE score are as follows). […]

[3] = test system: IL-17 secretion in EL4 murine lymphoma cells; test: Anti-IL-17 secretion in EL4 (murine lymphoma) cells induced with PMA and Ionomycin, ELISA; assay type: cell-based; conditions: PMA 10 ng/ml + Ionomycin 5 ng/ml, 18 hours
Method: EL4 cell line is murine lymphoma cell purchased from Bioresource Collection and Research Center (referred to as BCRC) and cultured in RPMI 1640 medium which contains 10% Fetal Bovine Serum (referred to as FBS), 1.5 g Sodium bicarbonate, 1 mM Sodium pyruvate, lx non-essential amino acids (referred to as NEAA), and 0.5 mM 2-Mecaptoethanol (referred to as 2-ME).
EL4 lymphoma cells were seeded into 96-well plate by 1×10^5 cells per well and 10 μl of the extract of A. tsao-ko HE-06 was added to each well and incubated at 37° C. in 5% CO2 cell incubator for 1 hour. Then, Phorbol-12-myristate-13-acetate (referred to as PMA or TPA) and Ionomycin were added to be the stimulants that induce activation of lymphoma cells, in which the final concentration of PMA was 10 ng/ml and the final concentration of Ionomycin was 5 ng/ml, and additional 18 hours incubation was executed. In the above test, the group of adding both PMA (final concentration of 10 ng/ml) and Ionomycin (final concentration of 5 ng/ml) was considered as the control group.
Thereafter, the cell-containing 96-well plate was centrifuged at 1200 rpm for 5 minutes and the supernatant was collected and transferred to the new 96-well plate. […] 150 μl DMSO was then added to dissolve the […] and the absorbance of 570 nm was measured to assess the cell viability. […]

For `O=CC1=CC[C@H](O)[C@@H]2CCC[C@H]12` [Tsaokoin (TK), tsaokoin], the “clinical symptoms of IMQ-induced psoriasis-like dermatitis” value [1] was “significantly alleviate the clinical symptoms of IMQ-induced psoriasis-like dermatitis”, the “inhibition of TNF-α secretion (in words)” value [2] was “significantly inhibit the secretion of TNF-α” and the “effect on progress of EAE (EAE score)” value (EAE in C57BL/6 mice) was “slow down the progress of EAE, and present a dose-dependent effect”. The “IC50, concentration causing 50% IL-17 secretion inhibition, EL4” value [3] was 12.1 µg/mL.
